Reference: ChEMBL document CHEMBL2390843, “Design, synthesis and antitumour activity of bisquinoline derivatives connected by 4-oxy-3-fluoroaniline moiety” (Eur J Med Chem, 2013)

What was measured:
[1] = Cytotoxicity against human U87MG cells after 72 hrs by MTT assay; type: functional, cell-based, U-87MG ATCC; settings: U-87 MG
[2] = test system: SMMC-7721; test: Cytotoxicity against human SMMC7721 cells after 72 hrs by MTT assay; settings: SMMC-7721, 72 h
[3] = test system: HT-29; test: Cytotoxicity against human HT-29 cells after 72 hrs by MTT assay; settings: HT-29, 72 h
[4] = test system: MKN-45; test: Cytotoxicity against human MKN45 cells after 72 hrs by MTT assay; settings: MKN-45, 72 h
[5] = Cytotoxicity against human H460 cells after 72 hrs by MTT assay; settings: NCI-H460, 72 h

Compound	IC50 [1] [nM]	IC50 [2] [nM]	IC50 [3] [nM]	IC50 [4] [nM]	IC50 [5] [nM]
COc1cc2c(Oc3ccc(NC(=O)c4cc(-c5ccccc5)nc5ccccc45)cc3F)ccnc2cc1OCCCN1CCOCC1	1140	330	1520	91	190
COc1cccc(-c2cc(C(=O)Nc3ccc(Oc4ccnc5cc(OCCCN6CCCC6)c(OC)cc45)c(F)c3)c3ccccc3n2)c1	–	790	1020	430	290
COc1cc2c(Oc3ccc(NC(=O)c4cc(-c5ccc(C)cc5)nc5ccccc45)cc3F)ccnc2cc1OCCCN1CCOCC1	–	1520	3560	830	1100
COc1cc2c(Oc3ccc(NC(=O)c4cc(-c5ccc(C)cc5)nc5ccc(F)cc45)cc3F)ccnc2cc1OCCCN1CCC(C)CC1	2000	–	420	260	480
COc1cc2c(Oc3ccc(NC(=O)c4cc(-c5ccccc5)nc5ccccc45)cc3F)ccnc2cc1OCCCN1CCCCC1	1490	290	530	15	110
COc1cc2c(Oc3ccc(NC(=O)c4cc(-c5ccc(C)cc5)nc5ccccc45)cc3F)ccnc2cc1OCCCN1CCC(C)CC1	–	1260	3150	770	880
COc1ccc(-c2cc(C(=O)Nc3ccc(Oc4ccnc5cc(OCCCN6CCCCC6)c(OC)cc45)c(F)c3)c3ccccc3n2)cc1	1360	210	690	210	290
COc1ccc(-c2cc(C(=O)Nc3ccc(Oc4ccnc5cc(OCCCN6CCCC6)c(OC)cc45)c(F)c3)c3cc(F)ccc3n2)cc1	930	–	610	170	250
COc1cc2c(Oc3ccc(NC(=O)c4cc(-c5cccc(Cl)c5)nc5ccc(F)cc45)cc3F)ccnc2cc1OCCCN1CCC(C)CC1	110	–	92	10	60
COc1ccc(-c2cc(C(=O)Nc3ccc(Oc4ccnc5cc(OCCCN6CCCCC6)c(OC)cc45)c(F)c3)c3cc(F)ccc3n2)cc1	1100	–	600	260	240
COc1cc2c(Oc3ccc(NC(=O)c4cc(-c5cccc(Cl)c5)nc5ccc(F)cc45)cc3F)ccnc2cc1OCCCN1CCCC1	990	–	670	67	72
COc1cccc(-c2cc(C(=O)Nc3ccc(Oc4ccnc5cc(OCCCN6CCC(C)CC6)c(OC)cc45)c(F)c3)c3cc(F)ccc3n2)c1	840	–	1210	730	840
COc1cc2c(Oc3ccc(NC(=O)c4cc(-c5ccc(Cl)cc5Cl)nc5ccc(F)cc45)cc3F)ccnc2cc1OCCCN1CCCCC1	1040	–	530	250	310
COc1cc2c(Oc3ccc(NC(=O)c4cc(-c5cccc(Cl)c5)nc5ccc(F)cc45)cc3F)ccnc2cc1OCCCN1CCOCC1	1060	–	1200	60	68
COc1cc2c(Oc3ccc(NC(=O)c4cc(-c5cccc(Cl)c5)nc5ccccc45)cc3F)ccnc2cc1OCCCN1CCCCC1	150	30	62	11	11
COc1cc2c(Oc3ccc(NC(=O)c4cc(-c5ccc(C)cc5)nc5ccc(F)cc45)cc3F)ccnc2cc1OCCCN1CCOCC1	820	–	390	320	440
